What all share (assay type): functional, cell-based
The target in test [1] is T1, Muscarinic acetylcholine receptor M5 (Homo sapiens, UniProt P08912).
T1 sequence (P08912 whole entry): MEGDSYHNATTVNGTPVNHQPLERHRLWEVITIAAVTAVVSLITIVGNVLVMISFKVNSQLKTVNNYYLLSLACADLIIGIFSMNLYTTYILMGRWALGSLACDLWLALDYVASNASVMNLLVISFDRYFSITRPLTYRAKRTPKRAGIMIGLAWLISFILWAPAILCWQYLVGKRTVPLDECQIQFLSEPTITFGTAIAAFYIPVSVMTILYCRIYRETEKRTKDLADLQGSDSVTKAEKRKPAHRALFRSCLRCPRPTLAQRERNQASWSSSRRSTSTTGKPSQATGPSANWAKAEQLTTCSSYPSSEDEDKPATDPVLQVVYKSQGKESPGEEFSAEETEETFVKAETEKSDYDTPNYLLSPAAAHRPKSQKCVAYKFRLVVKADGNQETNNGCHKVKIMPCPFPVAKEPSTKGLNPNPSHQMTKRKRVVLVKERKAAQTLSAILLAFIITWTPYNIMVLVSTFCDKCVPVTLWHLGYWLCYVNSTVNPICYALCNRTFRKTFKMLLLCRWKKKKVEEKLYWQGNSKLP
Briefly: Activation of human cloned muscarinic M5 receptor expressed in CHO-K1 cells by Calcium flux assay relative to control.

Test [2] has as its target Muscarinic acetylcholine receptor M3 (Homo sapiens, UniProt P20309). The test can be described thus: Activation of human cloned muscarinic M3 receptor expressed in CHO-K1 cells by Calcium flux assay relative to control.
Test [3] addresses T2, Muscarinic acetylcholine receptor M4 (Homo sapiens, UniProt P08173).
T2 sequence (P08173 whole entry): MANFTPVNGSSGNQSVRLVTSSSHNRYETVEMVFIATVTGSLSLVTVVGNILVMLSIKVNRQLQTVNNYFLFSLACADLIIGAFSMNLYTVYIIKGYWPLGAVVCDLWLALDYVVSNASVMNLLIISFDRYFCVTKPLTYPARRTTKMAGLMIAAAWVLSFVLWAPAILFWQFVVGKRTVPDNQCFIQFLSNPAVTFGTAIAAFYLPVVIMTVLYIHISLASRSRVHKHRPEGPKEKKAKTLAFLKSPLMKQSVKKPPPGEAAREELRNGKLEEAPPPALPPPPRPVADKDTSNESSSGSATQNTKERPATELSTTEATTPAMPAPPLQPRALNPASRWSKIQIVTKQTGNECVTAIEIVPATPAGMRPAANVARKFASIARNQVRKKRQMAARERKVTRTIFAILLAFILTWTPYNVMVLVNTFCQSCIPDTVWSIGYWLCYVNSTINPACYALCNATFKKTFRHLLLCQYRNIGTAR
The test can be described thus: Activation of human cloned muscarinic M4 receptor expressed in CHO-K1 cells by Calcium flux assay relative to control.

The target of test [4] is T3, Muscarinic acetylcholine receptor M2 (Homo sapiens, UniProt P08172).
T3 sequence (P08172 whole entry): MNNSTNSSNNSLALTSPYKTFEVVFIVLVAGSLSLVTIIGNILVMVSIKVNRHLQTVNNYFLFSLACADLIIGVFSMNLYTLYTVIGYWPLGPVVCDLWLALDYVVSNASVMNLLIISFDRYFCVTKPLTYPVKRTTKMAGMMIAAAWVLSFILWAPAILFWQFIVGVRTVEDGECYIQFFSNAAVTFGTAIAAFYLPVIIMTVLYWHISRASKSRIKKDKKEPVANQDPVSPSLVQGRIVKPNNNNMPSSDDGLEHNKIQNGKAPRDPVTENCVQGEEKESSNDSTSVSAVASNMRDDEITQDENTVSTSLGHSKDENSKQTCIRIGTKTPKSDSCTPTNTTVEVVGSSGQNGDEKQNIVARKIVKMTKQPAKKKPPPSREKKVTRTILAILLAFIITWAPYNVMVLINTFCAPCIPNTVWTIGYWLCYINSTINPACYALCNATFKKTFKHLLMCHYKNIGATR
The test can be described thus: Activation of human cloned muscarinic M2 receptor expressed in CHO-K1 cells by Calcium flux assay.

Sequence of Muscarinic acetylcholine receptor M3 (P20309 whole entry): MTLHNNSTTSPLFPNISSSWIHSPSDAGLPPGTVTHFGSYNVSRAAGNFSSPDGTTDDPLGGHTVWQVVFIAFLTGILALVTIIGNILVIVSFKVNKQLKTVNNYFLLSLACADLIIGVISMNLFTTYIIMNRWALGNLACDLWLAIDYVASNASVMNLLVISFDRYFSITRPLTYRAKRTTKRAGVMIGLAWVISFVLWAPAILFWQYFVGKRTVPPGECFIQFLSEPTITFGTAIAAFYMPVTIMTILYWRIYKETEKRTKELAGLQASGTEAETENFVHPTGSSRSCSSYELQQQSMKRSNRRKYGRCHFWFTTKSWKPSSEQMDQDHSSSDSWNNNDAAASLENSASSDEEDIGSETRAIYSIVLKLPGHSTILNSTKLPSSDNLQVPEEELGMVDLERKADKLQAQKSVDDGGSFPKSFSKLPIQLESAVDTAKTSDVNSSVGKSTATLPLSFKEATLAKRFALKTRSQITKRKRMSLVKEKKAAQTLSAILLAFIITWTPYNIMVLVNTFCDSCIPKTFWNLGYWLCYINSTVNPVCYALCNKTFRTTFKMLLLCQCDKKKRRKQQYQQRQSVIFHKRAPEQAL

For `COc1ccccc1C1CCN([C@@H]2COC3(C2)CN(C(=O)C2COC2)C3)CC1`, the half-maximal effective concentration (EC50) in test [1] and in test [2] was over 25 µM throughout.
With `COc1ccc(F)cc1C1CCN([C@@H]2CCC3(C2)CN(C(=O)C2COC2)C3)CC1`, the values for the EC50 in test [1], in test [3] and in test [2] were 0.14 µM, 0.0017 µM and over 25 µM, respectively.
Turning to `COc1cc(F)ccc1C1CCN([C@@H]2COC3(C2)CN(C(=O)C2COC2)C3)CC1`, the EC50 in test [1] and in test [2] was over 25 µM in each case.
Regarding `CCOc1ccccc1C1CCN([C@@H]2CCC3(C2)CN(C(=O)C2COC2)C3)CC1`, the EC50 was over 25 µM in test [1], 0.0065 µM in test [3], over 25 µM in test [2] and 0.21 µM in test [4].
Take `COc1ccc(F)cc1C1CCN([C@@H]2COC3(C2)CN(C(=O)C2COC2)C3)CC1`: the 50% effective concentration (EC50) in test [1] and in test [2] was over 25 µM throughout.
Turning to `CCOc1ccccc1C1CCN([C@@H]2CCC3(C2)CN(C(C)=O)C3)CC1`, in test [2], the 50% effective concentration (EC50) is over 25 µM.
With `COc1cc(F)ccc1C1CCN([C@@H]2CCC3(C2)CN(C(=O)C2COC2)C3)CC1`, the figures for the EC50 in test [1], in test [3] and in test [2] were over 25 µM, 0.0093 µM and over 25 µM, respectively.
Take `CCOc1ccccc1C1CCN([C@@H]2CCC3(C2)CN(C(=O)CC)C3)CC1`: the EC50 in test [1] and in test [2] was over 25 µM throughout.
Regarding `COc1ccccc1C1CCN(C2CCC3(C2)CN(C(=O)C2COC2)C3)CC1` (single isomer, unassigned), the EC50 in test [2] was over 25 µM.
Consider `CCCCCCOc1nsnc1C1=CCCN(C)C1` [XANOMELINE], for which, in test [2], the concentration giving a half-maximal response (EC50) came to 0.11 µM.

Values taken from ChEMBL document CHEMBL5390321, “Transaminases Provide Key Chiral Building Blocks for the Synthesis of Selective M1/M4 Agonists” (ACS Med Chem Lett, 2023).
